| SMILES | melting point [°C] |
| --- | --- |
| CC(=O)OC1CSC(Oc2cccc(-c3ccccn3)c2)C(OC(C)=O)C1OC(C)=O (stereo not drawn) | 68 to 97 |
| CC(C)[Si](C(C)C)(C(C)C)n1cc(SC(=O)c2ccccc2)c(C(=O)c2ccccc2)c1 | 120 to 122 |
| COc1cc(C(C)=O)c(OC)cc1C | 75 to 77 |
| O=C1NCc2cc(-c3cnc4[nH]c(=O)n(CC5CCCCC5)c4n3)ccc21 | 337 to 339 |
| CCC(O)(CC(=O)OC(C)(C)C)c1cc[nH]c(=O)c1 (stereo not drawn) | 167 |
| COc1ccc(C(=O)Cc2c(Cl)cncc2Cl)c2c(CC(=O)Nc3cccnc3)coc12 | 252 to 255 |
| O=C(C=Cc1cc([N+](=O)[O-])ccc1Cl)N1CCc2c([nH]c3ccccc23)C1c1ccc2c(c1)OCO2 (stereo not drawn) | 146 |
| O=C(O)Cc1c(C(=O)c2ccc(Cl)cc2)[nH]c2ccc(OC(F)(F)F)cc12 | 195 |
| Cc1oc(-c2ccccc2)nc1COc1ccc(COc2ccc3ccccc3c2C=O)cc1 | 141 to 142 |
| COc1cccc2c1cc(C(=O)O)n2CC(=O)OC(C)(C)C | 222 to 224 |
| Cc1ccc(C(F)(F)c2ccc(C3CCCN4CCS(=O)(=O)N=C34)cc2)cc1 (stereo not drawn) | 190 to 191 |
| Cc1c[nH]c(-c2c(Cl)cc(C(F)(F)F)cc2Cl)n1 | 211 to 212 |
| CCCN(CCC)Cc1csc(-c2ncn3c2[C@@H]2CCN2C(=O)c2c(Cl)cccc2-3)n1 | 200 to 201 |
| CC(C)C1NS(=O)(=O)N(COC(=O)c2c(Cl)cccc2Cl)C1=O (stereo not drawn) | 151 to 152 |
| c1ccc(Nc2ccc(-c3ccc(N(c4ccccc4)c4ccc(-c5ccccc5)cc4)cc3)cc2)cc1 | 127 |
| COc1ccc2c(c1)c(-c1[nH]c3ncccc3c1F)cn2C | 248 to 250 |
| Cc1nc(N(C)c2cc(Cl)cc(Cl)c2)sc1-c1ccnc(Nc2ccc(N3CCOCC3)cc2)n1 | 216 to 218 |
| COC(C)(C)OCC(C)C1CCC2C3C=CC4=CC(=O)C5OC5C4(C)C3CCC12C (stereo not drawn) | 150 to 151 |
| Nc1nc(-c2cc(Cl)ccc2Cl)nc(N2CCC2)n1 | 207 to 208 |

| SMILES | melting point [°C] |
| --- | --- |
| CC(C)OC(=O)c1cc(NC(=S)OC(C)C)ccc1Cl | 89 |
| COc1c(C)cc(NC(=O)C(C)(C)C)cc1C | 126 to 128 |
| Cn1cc2c(n1)-c1sccc1N(C(=O)c1ccc(NC(=O)c3ccc(Cl)cc3Cl)cc1)CC2 | 265 to 267 |
| COC(=O)CCc1ccc(N2CCN(c3ccc(C(=N)NC(=O)OC)cc3)S2(=O)=O)cc1 | > 275 |
| O=C(O)CCC(=O)Nc1ccc(Nc2ccccc2)cc1 | 175 to 176 |
| N#CCSC(=O)c1ccc(C#N)cc1 | 132 to 134 |
| O=C(Nc1cccnc1Cl)c1ccccc1[N+](=O)[O-] | 160 |
| CC1CCN(c2c(-c3c(F)cc(F)cc3F)c(Cl)nc3nc(S(C)(=O)=O)nn23)CC1 | 206 |
| CCCn1cc(Cc2ccc(C(=O)O)cc2OC)c2cc(CC3CCCN(C)C3=O)ccc21 (stereo not drawn) | 105 to 115 |
| CNc1nnc(-c2ccc3ncn(-c4ccc(SC)cc4)c3c2)o1 | 224 to 225 |
| O=C1CCC(c2ccc(Cl)c(Cl)c2)O1 (stereo not drawn) | 54 to 55 |
| C=CCN(C(C)=O)c1cccc(-c2ccc3nnc(C)n3n2)c1 | 114 to 115 |
| COC(=O)C1=Cc2ccccc2N(C)CCC1 | 80 to 82 |
| O=[N+]([O-])C/C=C/c1sc2ccc(Cl)cc2c1Cl | 143 to 146 |
| CCC(=O)c1ccc(Cl)c2nc3n(c12)CCCN3c1ccc(Cl)cc1Cl | 156 to 157 |
| CC1(C)OCC(NC2COC(C)(C)OC2)CO1 | 65 |
| O=C1CCC(N2Cc3c(OCc4ccc(CN5CCC(Oc6ccccc6)CC5)cc4)cccc3C2=O)C(=O)N1 (stereo not drawn) | 180 to 182 |
| COc1ccccc1-c1cc(NC(=O)[C@H]2CCCNC2)ncn1 | 163 to 165 |
| CSc1ncnn1C[C@]1(c2ccc(F)c(F)c2)O[C@@H]1c1ccccc1C(F)(F)F (relative stereo) | 83 to 85 |

From a melting point compilation (Tetko et al.; mined from patent text by program, amines drawn as free bases though some values may be those of a salt)
